According to ChEMBL document CHEMBL4251632, “Synthesis and antidepressant-like activity of novel aralkyl piperazine derivatives targeting SSRI/5-HT1A/5-HT7” (Eur J Med Chem, 2018):

What was measured:
[1] = Oral bioavailability in Sprague-Dawley rat at 2 mg/kg administered as single dose by LC-MS/MS analysis; format: ADME, organism-based; conditions: in vivo
[2] = Tmax in Sprague-Dawley rat at 0.5 mg/kg, iv administered as single dose by LC-MS/MS analysis; format: ADME, organism-based; conditions: in vivo
[3] = Tmax in Sprague-Dawley rat at 2 mg/kg, po administered as single dose by LC-MS/MS analysis; format: ADME, organism-based; conditions: in vivo
Mus musculus [4] = test: Antidepressant-like activity in mouse assessed as reduction in immobility time at 20 mg/kg/day, po once daily for 7 days measured for last 4 mins of 6 mins test at 1 hr post last dose by forced swim test relative to control; format: functional; set-up: scale not given: the % may be the effect or the level left
[5] = Plasma concentration in Sprague-Dawley rat at 0.5 mg/kg, iv administered as single dose measured after 30 mins by LC-MS/MS analysis; format: ADME, organism-based
[6] = molecular target: Sodium-dependent serotonin transporter (Rattus norvegicus) (UniProt P31652); test: Inhibition of [3H]serotonin reuptake in rat brain synaptosomes SERT at 10 uM after 15 mins by TopCount scintillation counting method relative to control; format: subcellular
[7] = Plasma concentration in Sprague-Dawley rat at 2 mg/kg, po administered as single dose measured after 2 hrs by LC-MS/MS analysis; format: ADME, organism-based
[8] = Cmax in Sprague-Dawley rat at 2 mg/kg, po administered as single dose by LC-MS/MS analysis; format: ADME, organism-based; set-up: dose 2 mg/kg, route oral; conditions: in vivo
[9] = MRT (0 to t) in Sprague-Dawley rat at 0.5 mg/kg, iv administered as single dose by LC-MS/MS analysis; format: ADME, organism-based; conditions: in vivo
[10] = Apparent volume of distribution during terminal phase in Sprague-Dawley rat at 2 mg/kg, po administered as single dose by LC-MS/MS analysis; format: ADME, organism-based; conditions: in vivo, read-out: Vz/F
[11] = AUC (0 to infinity) in Sprague-Dawley rat at 2 mg/kg, po administered as single dose by LC-MS/MS analysis; format: ADME, organism-based; set-up: dose 2 mg/kg, time infinity, route oral; conditions: in vivo
[12] = Apparent terminal half life in Sprague-Dawley rat at 0.5 mg/kg, iv administered as single dose by LC-MS/MS analysis; format: ADME, organism-based; conditions: in vivo, read-out: betat1/2(app) (converted)
Mus musculus [13] = test: Antidepressant-like activity in po dosed mouse assessed as reduction in immobility time administered once daily for 7 days measured for 5 mins at 1 hr post last dose by tail suspension test; format: functional, organism-based
[14] = AUC (0 to t) in Sprague-Dawley rat at 0.5 mg/kg, iv administered as single dose by LC-MS/MS analysis; format: ADME, organism-based; conditions: in vivo
[15] = Plasma concentration in Sprague-Dawley rat at 2 mg/kg, po administered as single dose measured after 1 hr by LC-MS/MS analysis; format: ADME, organism-based
[16] = Plasma concentration in Sprague-Dawley rat at 2 mg/kg, po administered as single dose measured after 8 hrs by LC-MS/MS analysis; format: ADME, organism-based
Rattus norvegicus [17] = test: Apparent clearance during terminal phase in Sprague-Dawley rat at 0.5 mg/kg, iv administered as single dose by LC-MS/MS analysis; format: ADME, organism-based; conditions: in vivo
[18] = Plasma concentration in Sprague-Dawley rat at 0.5 mg/kg, iv administered as single dose measured after 6 hrs by LC-MS/MS analysis; format: ADME, organism-based
[19] = Plasma concentration in Sprague-Dawley rat at 2 mg/kg, po administered as single dose measured after 4 hrs by LC-MS/MS analysis; format: ADME, organism-based
[20] = Plasma concentration in Sprague-Dawley rat at 2 mg/kg, po administered as single dose measured after 15 mins by LC-MS/MS analysis; format: ADME, organism-based
[21] = AUC (0 to t) in Sprague-Dawley rat at 2 mg/kg, po administered as single dose by LC-MS/MS analysis; format: ADME, organism-based; conditions: in vivo
[22] = molecular target: 5-hydroxytryptamine receptor 7 (Homo sapiens, UniProt P34969); test: Displacement of [3H]LSD from recombinant human 5-HT7 receptor expressed in CHO cell membranes at 10 uM after 120 mins by TopCount scintillation counting method relative to control
[23] = Apparent clearance during terminal phase in Sprague-Dawley rat at 2 mg/kg, po administered as single dose by LC-MS/MS analysis; format: ADME, organism-based; conditions: in vivo, read-out: CLz/F (converted)
Rattus norvegicus [24] = test: Apparent volume of distribution during terminal phase in Sprague-Dawley rat at 0.5 mg/kg, iv administered as single dose by LC-MS/MS analysis; format: ADME, organism-based; conditions: in vivo
[25] = Plasma concentration in Sprague-Dawley rat at 0.5 mg/kg, iv administered as single dose measured after 15 mins by LC-MS/MS analysis; format: ADME, organism-based
Mus musculus [26] = test: Antidepressant-like activity in mouse assessed as reduction in immobility time at 40 mg/kg/day, po once daily for 7 days measured for last 4 mins of 6 mins test at 1 hr post last dose by forced swim test relative to control; format: functional; set-up: scale not given: the % may be the effect or the level left
[27] = Apparent terminal half life in Sprague-Dawley rat at 2 mg/kg, po administered as single dose by LC-MS/MS analysis; format: ADME, organism-based; conditions: in vivo, read-out: betat1/2(app) (converted)
[28] = Plasma concentration in Sprague-Dawley rat at 2 mg/kg, po administered as single dose measured after 30 mins by LC-MS/MS analysis; format: ADME, organism-based
[29] = MRT (0 to t) in Sprague-Dawley rat at 2 mg/kg, po administered as single dose by LC-MS/MS analysis; format: ADME, organism-based; conditions: in vivo
Mus musculus [30] = test: Antidepressant-like activity in mouse assessed as reduction in immobility time at 10 mg/kg/day, po once daily for 7 days measured for last 4 mins of 6 mins test at 1 hr post last dose by forced swim test relative to control; format: functional; set-up: scale not given: the % may be the effect or the level left
[31] = molecular target: T1, 5-hydroxytryptamine receptor 1A (Homo sapiens, UniProt P08908); test: Displacement of [3H]8-OH-DPAT from recombinant human 5-HT1A receptor expressed in HEK293 cell membranes after 60 mins by TopCount scintillation counting method
T1 sequence (P08908 whole entry): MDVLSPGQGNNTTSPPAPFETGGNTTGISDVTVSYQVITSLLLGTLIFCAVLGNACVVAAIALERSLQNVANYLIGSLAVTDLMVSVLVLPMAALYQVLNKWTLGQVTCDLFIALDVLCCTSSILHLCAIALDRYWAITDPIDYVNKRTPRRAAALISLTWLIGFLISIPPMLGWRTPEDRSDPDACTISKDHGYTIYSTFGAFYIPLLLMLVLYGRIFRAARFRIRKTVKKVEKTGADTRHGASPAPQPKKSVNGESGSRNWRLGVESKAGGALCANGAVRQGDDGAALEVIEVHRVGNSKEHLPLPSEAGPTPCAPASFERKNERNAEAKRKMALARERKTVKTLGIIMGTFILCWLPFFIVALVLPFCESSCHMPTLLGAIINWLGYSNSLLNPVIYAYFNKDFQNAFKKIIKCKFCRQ

[32] = Plasma concentration in Sprague-Dawley rat at 0.5 mg/kg, iv administered as single dose measured after 8 hrs by LC-MS/MS analysis; format: ADME, organism-based
[33] = Plasma concentration in Sprague-Dawley rat at 2 mg/kg, po administered as single dose measured after 6 hrs by LC-MS/MS analysis; format: ADME, organism-based
in vitro = conditions: rat, liver microsomes
Description: Half life in rat liver microsomes at 1 uM in presence of NADPH by LC-MS/MS analysis

Chain of 5-hydroxytryptamine receptor 7 (P34969 whole entry): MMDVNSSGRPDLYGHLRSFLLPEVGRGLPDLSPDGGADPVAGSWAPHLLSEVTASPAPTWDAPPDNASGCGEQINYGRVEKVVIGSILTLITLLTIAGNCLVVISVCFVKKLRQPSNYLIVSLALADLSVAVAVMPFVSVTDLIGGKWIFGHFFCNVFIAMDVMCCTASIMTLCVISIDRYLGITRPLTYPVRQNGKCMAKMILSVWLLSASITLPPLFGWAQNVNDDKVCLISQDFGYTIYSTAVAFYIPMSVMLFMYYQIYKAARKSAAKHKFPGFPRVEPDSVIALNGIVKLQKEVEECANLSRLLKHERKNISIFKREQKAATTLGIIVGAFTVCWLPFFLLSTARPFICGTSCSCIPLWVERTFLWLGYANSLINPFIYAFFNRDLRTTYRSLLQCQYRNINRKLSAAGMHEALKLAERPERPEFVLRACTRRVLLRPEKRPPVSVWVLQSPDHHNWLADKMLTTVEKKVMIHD
Chain of Sodium-dependent serotonin transporter (Rattus norvegicus) (P31652 whole entry): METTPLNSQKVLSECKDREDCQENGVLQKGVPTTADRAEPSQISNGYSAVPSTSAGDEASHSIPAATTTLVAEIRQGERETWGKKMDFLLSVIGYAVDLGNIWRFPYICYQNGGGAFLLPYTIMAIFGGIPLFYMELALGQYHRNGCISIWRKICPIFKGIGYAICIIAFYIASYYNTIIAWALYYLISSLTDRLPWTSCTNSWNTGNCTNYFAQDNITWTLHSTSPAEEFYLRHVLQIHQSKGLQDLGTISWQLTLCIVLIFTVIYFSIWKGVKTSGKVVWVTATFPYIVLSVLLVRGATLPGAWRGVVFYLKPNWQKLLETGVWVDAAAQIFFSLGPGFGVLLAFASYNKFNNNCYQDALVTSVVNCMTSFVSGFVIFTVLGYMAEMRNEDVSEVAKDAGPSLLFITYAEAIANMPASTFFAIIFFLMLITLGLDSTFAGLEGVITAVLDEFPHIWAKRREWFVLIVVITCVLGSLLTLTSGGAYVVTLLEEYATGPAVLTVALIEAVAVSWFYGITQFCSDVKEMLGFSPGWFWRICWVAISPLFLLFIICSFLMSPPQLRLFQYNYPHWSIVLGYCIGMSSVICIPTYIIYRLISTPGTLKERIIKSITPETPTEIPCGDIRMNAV

With Fc1ccc(N2CCN(CCCc3c[nH]c4ccc(F)cc34)CC2)c(-c2ccccc2)c1 the bioavailability [1] was 68.5%, the Tmax [2] was 6 min and the Tmax [3] was 1.7 h. It also gave an Activity (Mus musculus [4]) of 27%, a concentration at 0.5 h [5] of 80.8 ng/mL and an inhibition [6] of over 90%. For the same molecule, the concentration at 2 h [7] was 76.7 ng/mL, the Cmax [8] was 86.7 ng/mL and the MRT last [9] was 1.9 h. It also gave a Vd/F [10] of 17.1 L/kg, an AUC(0-inf) [11] of 898 ng·h/mL and a half-life [12] of 3.3 h. The Activity (Mus musculus [13]) was “Dose-dependent effect”, the AUC(0-t) [14] was 287 ng·h/mL and the concentration at 1 h [15] was 72.8 ng/mL. For the same molecule, the concentration at 8 h [16] was 47.4 ng/mL, the CLz/F (Rattus norvegicus [17]) was 25 mL/min/kg and the concentration at 6 h [18] was 12.4 ng/mL. It also gave a concentration at 4 h [19] of 60.7 ng/mL, a concentration at […] [20] of 20.4 ng/mL and an AUC(0-t) [21] of 536 ng·h/mL. The inhibition [22] was over 90%, the CL/F [23] was 40 mL/min/kg and the Vz/F (Rattus norvegicus [24]) was 7.4 L/kg. The concentration at […] [25] was 149 ng/mL, the Activity (Mus musculus [26]) was 54% and the half-life [27] was 6.1 h. The concentration at 0.5 h [28] was 58.3 ng/mL, the MRT last [29] was 4.3 h and the Activity (Mus musculus [30]) was 24%. The Ki [31] was 0.028 µM, the concentration at 8 h [32] was 8.84 ng/mL and the concentration at 6 h [33] was 64.7 ng/mL. It also gave a half-life at 1 µM (in vitro) of 0.775 h.
